In BindingDB's records for patent US20260060961 (Jazz Pharmaceuticals Ireland, 2026):
pIC50: −log10 of the molar value.

Molecular target: GTPase KRas [G12C] (Homo sapiens, UniProt P01116, G12C)
Experiment: HTRF Nucleotide Exchange Assay
Method: The capacity of compounds to bind KRAS G12C and KRAS wildtype was quantified using a HTRF nucleotide exchange assay. Recombinant human KRAS protein (5 nM; aa1-188 KRAS WT or KRAS containing the G12C amino acid substitution, an N-terminal 6×His-tag and leader sequence), and 2 nM Europium-labeled anti-6×His antibody were mixed in assay buffer (10 mM HEPES pH7.3, 75 mM NaCl, 5 mM MgCl2, 0.05% BSA, 0.0025% NP-40 and 100 mM KF) with various concentrations of compound in a 384-well plate and a volume of 5 μL. After a 180 minute incubation at room temperature, 5 μl of 200 nM EDA-GTP-DY647P1 diluted in assay buffer was added to the plate. Following 30-minute incubation at room temperature, time-resolved fluorescence was measured on a PerkinElmer Envision plate reader. DMSO (0.3%) and unlabeled GDP (1 μM) or equivalent tool compound were used to generate the Max and Min assay signals, respectively. Data was analysed using a four-parameter logistic model to calculate IC50 values, with at least two independent replicates were performed for each compound.

GTPase KRas [G12C], sequence (P01116 whole entry G12C): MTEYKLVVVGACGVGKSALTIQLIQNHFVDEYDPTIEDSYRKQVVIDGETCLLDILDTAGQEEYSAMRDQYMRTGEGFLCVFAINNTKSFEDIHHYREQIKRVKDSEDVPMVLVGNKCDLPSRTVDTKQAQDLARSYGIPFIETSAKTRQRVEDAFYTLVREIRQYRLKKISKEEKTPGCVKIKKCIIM

| pIC50 | SMILES |
| --- | --- |
| > 6.00 | C=CC(=O)N1CC2(CC(c3nc(-c4ccc(OCC(=O)N5CCOCC5)cc4)c(-c4cc(O)cc5ccccc45)n3C)C2)C1 [US20260060961, Example 29] |
| < 5.00 | C=CC(=O)N1CC2(CC(c3nc(-c4ccc5c(cnn5C)c4)c(-c4cccc5ccccc45)n3C)C2)C1 [US20260060961, Example 34] |
